{"source": "ChEMBL document CHEMBL2074114", "about": "“Inhibitory effect of novel oral hypoglycemic agent nateglinide (AY4166) on peptide transporters PEPT1 and PEPT2” (Eur J Pharmacol, 2000)", "assay_type_in_all_cases": "functional, cell-based", "key": {"[1]": {"target": "T1, Solute carrier family 15 member 1 (Rattus norvegicus) (UniProt P51574)", "T1 sequence (whole entry)": "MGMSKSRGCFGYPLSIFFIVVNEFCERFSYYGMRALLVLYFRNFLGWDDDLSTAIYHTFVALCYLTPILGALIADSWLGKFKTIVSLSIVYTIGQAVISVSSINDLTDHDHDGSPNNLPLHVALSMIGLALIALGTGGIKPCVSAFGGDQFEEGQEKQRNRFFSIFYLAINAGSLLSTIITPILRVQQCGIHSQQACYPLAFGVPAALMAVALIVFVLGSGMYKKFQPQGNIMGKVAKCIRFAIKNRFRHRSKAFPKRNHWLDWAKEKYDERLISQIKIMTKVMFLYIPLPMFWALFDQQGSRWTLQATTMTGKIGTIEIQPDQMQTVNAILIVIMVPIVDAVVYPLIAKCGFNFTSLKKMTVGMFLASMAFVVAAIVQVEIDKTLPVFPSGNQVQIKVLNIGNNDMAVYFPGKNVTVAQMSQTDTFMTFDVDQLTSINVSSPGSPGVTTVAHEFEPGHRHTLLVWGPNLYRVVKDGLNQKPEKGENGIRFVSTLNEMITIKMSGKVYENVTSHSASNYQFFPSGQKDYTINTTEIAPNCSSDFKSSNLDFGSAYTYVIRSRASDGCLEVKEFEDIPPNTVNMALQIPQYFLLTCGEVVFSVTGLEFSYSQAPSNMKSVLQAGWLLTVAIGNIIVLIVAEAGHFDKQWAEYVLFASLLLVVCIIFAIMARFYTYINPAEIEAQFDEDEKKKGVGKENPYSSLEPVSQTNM", "assay": "TP_TRANSPORTER: inhibition of Gly-Sar uptake (Gly-Sar: 20 uM, Tolbutamide: 1000uM) in PEPT1-expressing LLC-PK1 cells"}, "[2]": {"target": "T2, Solute carrier family 15 member 2 (Rattus norvegicus) (UniProt Q63424)", "T2 sequence (whole entry)": "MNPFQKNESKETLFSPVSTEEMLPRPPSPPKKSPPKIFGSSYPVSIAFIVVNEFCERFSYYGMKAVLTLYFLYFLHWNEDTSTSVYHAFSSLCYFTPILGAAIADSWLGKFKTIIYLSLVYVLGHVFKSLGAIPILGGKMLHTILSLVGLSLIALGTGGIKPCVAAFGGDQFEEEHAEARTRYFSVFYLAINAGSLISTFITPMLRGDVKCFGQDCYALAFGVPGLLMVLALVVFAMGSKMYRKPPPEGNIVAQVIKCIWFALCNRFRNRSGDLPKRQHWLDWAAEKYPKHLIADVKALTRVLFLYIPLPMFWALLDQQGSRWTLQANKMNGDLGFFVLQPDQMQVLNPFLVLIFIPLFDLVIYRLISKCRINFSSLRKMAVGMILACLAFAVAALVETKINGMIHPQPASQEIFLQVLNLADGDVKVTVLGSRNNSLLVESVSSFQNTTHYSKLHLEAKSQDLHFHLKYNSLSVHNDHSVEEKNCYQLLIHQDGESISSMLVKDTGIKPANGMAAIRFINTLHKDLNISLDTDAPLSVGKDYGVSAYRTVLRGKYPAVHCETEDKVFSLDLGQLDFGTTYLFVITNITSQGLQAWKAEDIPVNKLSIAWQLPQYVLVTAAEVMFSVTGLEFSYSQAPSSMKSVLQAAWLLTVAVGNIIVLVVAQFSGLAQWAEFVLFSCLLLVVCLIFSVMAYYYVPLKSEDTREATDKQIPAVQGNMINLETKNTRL", "assay": "TP_TRANSPORTER: inhibition of Gly-Sar uptake (Gly-Sar: 20 uM, Tolbutamide: 1000uM) in PEPT2-expressing LLC-PK1 cells"}, "[3]": {"target": "T1, Solute carrier family 15 member 1 (Rattus norvegicus)", "assay": "TP_TRANSPORTER: inhibition of Gly-Sar uptake (Gly-Sar: 20 uM, Chlorpropamide: 1000uM) in PEPT1-expressing LLC-PK1 cells"}, "[4]": {"target": "T2, Solute carrier family 15 member 2 (Rattus norvegicus)", "assay": "TP_TRANSPORTER: inhibition of Gly-Sar uptake (Gly-Sar: 20 uM, Chlorpropamide: 1000uM) in PEPT2-expressing LLC-PK1 cells"}, "[5]": {"target": "T3, Solute carrier family 15 member 2 (Rattus norvegicus, UniProt Q63424)", "T3 sequence (Q63424 whole entry)": "T2 sequence (whole entry)", "assay": "TP_TRANSPORTER: inhibition of Gly-Sar uptake (Gly-Sar: 20 uM) in PEPT2-expressing LLC-PK1 cells"}, "[6]": {"target": "T2, Solute carrier family 15 member 2 (Rattus norvegicus)", "assay": "TP_TRANSPORTER: uptake in PEPT2-expressing LLC-PK1 cells"}, "[7]": {"target": "T1, Solute carrier family 15 member 1 (Rattus norvegicus)", "assay": "TP_TRANSPORTER: uptake in PEPT1-expressing LLC-PK1 cells"}, "[8]": {"target": "T4, Solute carrier family 15 member 1 (Rattus norvegicus, UniProt P51574)", "T4 sequence (P51574 whole entry)": "T1 sequence (whole entry)", "assay": "TP_TRANSPORTER: inhibition of Gly-Sar uptake (Gly-Sar: 20 uM) in PEPT1-expressing LLC-PK1 cells"}}, "data": [{"smiles": "CCCCNC(=O)NS(=O)(=O)c1ccc(C)cc1", "values": [{"measurement": "Activity", "setting": "[1]", "value": "inhibitor [+]"}, {"measurement": "Activity", "setting": "[2]", "value": "inhibitor [+]"}]}, {"smiles": "CCCNC(=O)NS(=O)(=O)c1ccc(Cl)cc1", "values": [{"measurement": "Activity", "setting": "[3]", "value": "inhibitor [+]"}, {"measurement": "Activity", "setting": "[4]", "value": "inhibitor [+]"}]}, {"smiles": "CC(C)[C@H]1CC[C@H](C(=O)N[C@H](Cc2ccccc2)C(=O)O)CC1", "note": "[NATEGLINIDE]", "values": [{"measurement": "IC50", "setting": "[5]", "value": 70, "unit": "µM"}, {"measurement": "Activity", "setting": "[6]", "value": "is not a substrate [-]"}, {"measurement": "Activity", "setting": "[7]", "value": "is not a substrate [-]"}, {"measurement": "IC50", "setting": "[8]", "value": 160, "unit": "µM"}]}]}
